The values that follow come from patent US8765733B2, “Amine substituted methanesulfonamide derivatives as vanilloid receptor ligands” (Gruenenthal GmbH, priority 2011, dated 2014).

The first experiment addresses vanilloid receptor 1 (VR1/TRPV1 receptor) (Homo sapiens, UniProt Q8NER1). Kind of experiment: FLIPR functional assay (Ca2+ influx, capsaicin) on the vanilloid receptor 1. Format: cell-based. To be noted: capsaicin (Cap) stimulus, compound at 5 μM, read-out: inhibition (as a percentage) Cap, (human being).
As for `CC(C(=O)NCc1ccc(C(F)(F)F)nc1N1CCCC1)c1cccc(CNS(C)(=O)=O)c1` (stereo not shown) [Example 2, 2-(3-(methylsulfonamidomethyl)phenyl)-N-((2-(pyrrolidin-1-yl)-6-(trifluoromethyl)pyridin-3-yl)methyl)propanamide], the inhibition at 5 µM was found to be 48%.

With `CCNc1nc(C(F)(F)F)ccc1CNC(=O)C(C)c1ccc(CNS(C)(=O)=O)c(F)c1` (stereo not shown) [Example 8, N-((2-(ethylamino)-6-(trifluoromethyl)pyridin-3-yl)methyl)-2-(3-fluoro-4-(methylsulfonamidomethyl)phenyl)propanamide], the inhibition at 5 µM was 71%.

For the compound `COC1CN(c2nc(C(F)(F)F)ccc2CNC(=O)C(C)c2ccc(CNS(C)(=O)=O)c(F)c2)C1` (stereo not shown) [Example 14, 2-(3-fluoro-4-(methylsulfonamidomethyl)phenyl)-N-((2-(3-methoxyazetidin-1-yl)-6-(trifluoromethyl)pyridin-3-yl)methyl)propanamide], the inhibition at 5 µM came to 46%.

Turning to `CC(C(=O)NCc1ccc(C(F)(F)F)nc1N1CCOCC1)c1ccc(CNS(C)(=O)=O)c(F)c1` (stereo not shown) [Example 35, 2-(3-fluoro-4-(methylsulfonamidomethyl)phenyl)-N-((2-morpholino-6-(trifluoromethyl)pyridin-3-yl)methyl)propanamide], the inhibition at 5 µM amounted to 53%.

Still in this experiment, the particulars now being: functional (f), capsaicin (Cap) stimulus, Ki from IC50 by Cheng-Prusoff, read-out: (f) Ki (human being) [nM] Cap.
As for `CS(=O)(=O)NCc1ccc(NC(=O)NCc2ccc(C(F)(F)F)nc2N2CCCC2)cc1` [Example 4, N-(4-(3-((2-(pyrrolidin-1-yl)-6-(trifluoromethyl)pyridin-3-yl)methyl)ureido)benzyl)methanesulfonamide], the Ki stood at 26 nM.

On to `CC1CCN(c2nc(C(F)(F)F)ccc2CNC(=O)Nc2ccc(CNS(C)(=O)=O)cc2)CC1` [Example 5, N-(4-(3-((2-(4-methylpiperidin-1-yl)-6-(trifluoromethyl)pyridin-3-yl)methyl)ureido)benzyl)methanesulfonamide], for which the Ki was 4 nM.

Consider `CC1CCN(c2nc(C(F)(F)F)ccc2CNC(=O)C(C)c2ccc(CNS(C)(=O)=O)cc2)CC1` (stereo not shown) [Example 6, N-((2-(4-methylpiperidin-1-yl)-6-(trifluoromethyl)pyridin-3-yl)methyl)-2-(4-(methylsulfonamidomethyl)phenyl)propanamide], for which the Ki is 11 nM.

Turning to `CCCCNc1nc(C(F)(F)F)ccc1CNC(=O)C(C)c1ccc(CNS(C)(=O)=O)c(F)c1` (stereo not shown) [Example 9, N-((2-(butylamino)-6-(trifluoromethyl)pyridin-3-yl)methyl)-2-(3-fluoro-4-(methylsulfonamidomethyl)phenyl)propanamide], the Ki was 95 nM.

For `CC(C(=O)NCc1ccc(C(F)(F)F)nc1N1CCCC1)c1ccc(CNS(C)(=O)=O)c(F)c1` (stereo not shown) [Example 17, 2-(3-fluoro-4-(methylsulfonamidomethyl)phenyl)-N-((2-(pyrrolidin-1-yl)-6-(trifluoromethyl)pyridin-3-yl)methyl)propanamide], the Ki worked out at 23 nM.

In the case of `CC(C(=O)NCc1ccc(C(F)(F)F)nc1N1CCCCC1)c1ccc(CNS(C)(=O)=O)c(F)c1` (stereo not shown) [Example 21, 2-(3-fluoro-4-(methylsulfonamidomethyl)phenyl)-N-((2-(piperidin-1-yl)-6-(trifluoromethyl)pyridin-3-yl)methyl)propanamide], the Ki worked out at 5 nM.

With `CC1CCN(c2nc(C(F)(F)F)ccc2CNC(=O)Nc2ccc(CNS(C)(=O)=O)c(F)c2)CC1` [Example 24, N-(2-fluoro-4-(3-((2-(4-methylpiperidin-1-yl)-6-(trifluoromethyl)pyridin-3-yl)methyl)ureido)benzyl)methanesulfonamide], the inhibition constant (Ki) was 5 nM.

With `CC1CCN(c2nc(C(F)(F)F)ccc2CNC(=O)Cc2ccc(CNS(C)(=O)=O)c(F)c2)CC1` [Example 25], the Ki is 4 nM.

Turning to `CC1CCN(c2nc(C(C)(C)C)ccc2CNC(=O)C(C)c2ccc(CNS(C)(=O)=O)c(F)c2)CC1` (stereo not shown) [Example 28, N-((6-tert-butyl-2-(4-methylpiperidin-1-yl)pyridin-3-yl)methyl)-2-(3-fluoro-4-(methylsulfonamidomethyl)phenyl)propanamide], the Ki was found to be 5 nM.

As for `CC1CCN(c2cc(C(F)(F)F)ccc2CNC(=O)C(C)c2ccc(CNS(C)(=O)=O)c(F)c2)CC1` (stereo not shown) [Example 29, 2-(3-fluoro-4-(methylsulfonamidomethyl)phenyl)-N-(2-(4-methylpiperidin-1-yl)-4-(trifluoromethyl)benzyl)propanamide], the Ki turned out to be 5 nM.

In the case of `CC1CCN(c2nc(C(F)(F)F)ccc2CNC(=O)C(C)c2ccc(CNS(C)(=O)=O)c(F)c2)CC1` (stereo not shown) [Example 30, 2-(3-fluoro-4-(methylsulfonamidomethyl)phenyl)-N-((2-(4-methylpiperidin-1-yl)-6-(trifluoromethyl)pyridin-3-yl)methyl)propanamide], the Ki was 8 nM.

In the case of `CC(C(=O)NCc1ccc(C(F)(F)F)nc1N1CCC(c2ccccc2)(N(C)C)CC1)c1ccc(CNS(C)(=O)=O)c(F)c1` (stereo not shown) [Example 34, N-((2-(4-(dimethylamino)-4-phenylpiperidin-1-yl)-6-(trifluoromethyl)pyridin-3-yl)methyl)-2-(3-fluoro-4-(methylsulfonamidomethyl)phenyl)propanamide], the Ki amounted to 61 nM.

Turning to `CC(C(=O)NCc1ccc(C(F)(F)F)nc1N1CCCC1)c1ccc(CNS(C)(=O)=O)c(Cl)c1` (stereo not shown) [Example 45, 2-(3-chloro-4-(methylsulfonamidomethyl)phenyl)-N-((2-(pyrrolidin-1-yl)-6-(trifluoromethyl)pyridin-3-yl)methyl)propanamide], the Ki turned out to be 80 nM.

As to `CC1CCN(c2nc(C(F)(F)F)ccc2CNC(=O)C(C)c2ccc(CNS(C)(=O)=O)c(Cl)c2)CC1` (stereo not shown) [Example 46, 2-(3-chloro-4-(methylsulfonamidomethyl)phenyl)-N-((2-(4-methylpiperidin-1-yl)-6-(trifluoromethyl)pyridin-3-yl)methyl)propanamide], the Ki stood at 5 nM.

Consider `CC1CCN(c2nc(C(F)(F)F)ccc2CNC(=O)Nc2ccc(CNS(C)(=O)=O)c(O)c2)CC1` [Example 47, N-(2-hydroxy-4-(3-((2-(4-methylpiperidin-1-yl)-6-(trifluoromethyl)pyridin-3-yl)methyl)ureido)benzyl)methanesulfonamide], for which the Ki came out at 6 nM.

`COc1cc(C(C)C(=O)NCc2ccc(C(F)(F)F)nc2N2CCCC2)ccc1CNS(C)(=O)=O` (stereo not shown) [Example 48, 2-(3-methoxy-4-(methylsulfonamidomethyl)phenyl)-N-((2-(pyrrolidin-1-yl)-6-(trifluoromethyl)pyridin-3-yl)methyl)propanamide]: the inhibitory constant (Ki) is 87 nM.

For the compound `COc1cc(NC(=O)NCc2ccc(C(F)(F)F)nc2N2CCC(C)CC2)ccc1CNS(C)(=O)=O` [Example 49, N-(2-methoxy-4-(3-((2-(4-methylpiperidin-1-yl)-6-(trifluoromethyl)pyridin-3-yl)methyl)ureido)benzyl)methanesulfonamide], the Ki turned out to be 12 nM.

For the compound `Cc1cc(NC(=O)NCc2ccc(C(F)(F)F)nc2N2CCCC2)ccc1CNS(C)(=O)=O` [Example 52, N-(2-methyl-4-(3-((2-(pyrrolidin-1-yl)-6-(trifluoromethyl)pyridin-3-yl)methyl)ureido)benzyl)methanesulfonamide], the Ki is 46 nM.

For `Cc1cc(NC(=O)NCc2ccc(C(F)(F)F)nc2N2CCC(C)CC2)ccc1CNS(C)(=O)=O` [Example 53, N-(2-methyl-4-(3-((2-(4-methylpiperidin-1-yl)-6-(trifluoromethyl)pyridin-3-yl)methyl)ureido)benzyl)methanesulfonamide], the Ki came to 5 nM.

As for `CCS(=O)(=O)NCc1ccc(C(C)C(=O)NCc2ccc(C(F)(F)F)nc2N2CCCC2)cc1F` (stereo not shown) [Example 54, 2-(4-(ethylsulfonamidomethyl)-3-fluorophenyl)-N-((2-(pyrrolidin-1-yl)-6-(trifluoromethyl)pyridin-3-yl)methyl)propanamide], the Ki was 76 nM.

As to `NS(=O)(=O)NCc1ccc(CCC(=O)NCc2ccc(C(F)(F)F)nc2N2CCCC2)cc1` [Example 56, 1-{[2-pyrrolidin-1-yl-6-(trifluoromethyl)pyridin-3-yl]methyl}-3-{4-[(sulfamoylamino)methyl]phenyl}propanamide], the Ki stood at 38 nM.

For the compound `NS(=O)(=O)NCc1ccc(NC(=O)NCc2ccc(C(F)(F)F)nc2N2CCCC2)cc1` [Example 57, 1-{[2-pyrrolidin-1-yl-6-(trifluoromethyl)pyridin-3-yl]methyl}-3-{4-[(sulfamoylamino)methyl]phenyl}urea], the Ki came to 85 nM.

`CC1CCN(c2nc(C(F)(F)F)ccc2CNC(=O)C(C)c2ccc(CNS(N)(=O)=O)cc2)CC1` (stereo not shown) [Example 58, N-((2-(4-methylpiperidin-1-yl)-6-(trifluoromethyl)pyridin-3-yl)methyl)-2-(4-((sulfamoylamino)methyl)phenyl)propanamide]: the inhibition constant Ki came out at 2 nM.

Consider `CC1CCN(c2nc(C(F)(F)F)ccc2CNC(=O)Nc2ccc(CNS(N)(=O)=O)cc2)CC1` [Example 59, 1-{[2-(4-methylpiperidin-1-yl)-6-(trifluoromethyl)pyridin-3-yl]methyl}-3-{4-[(sulfamoylamino)methyl]phenyl}urea], for which the Ki amounted to 1 nM.

As to `NS(=O)(=O)NCc1ccc(NC(=O)NCc2ccc(C(F)(F)F)nc2N2CCCC2)cc1F` [Example 60, 1-{3-fluoro-4-[(sulfamoylamino)methyl]phenyl}-3-{[2-pyrrolidin-1-yl-6-(trifluoromethyl)pyridin-3-yl]methyl}urea], the Ki is 20 nM.

For `CC1CCN(c2nc(C(F)(F)F)ccc2CNC(=O)Nc2ccc(CNS(N)(=O)=O)c(F)c2)CC1` [Example 61, 1-{3-fluoro-4-[(sulfamoylamino)methyl]phenyl}-3-{[2-(4-methylpiperidin-1-yl)/-6-(trifluoromethyl)pyridin-3-yl]methyl}urea], the Ki came out at 1 nM.

In the case of `CC1CCN(c2nc(C(F)(F)F)ccc2CNC(=O)C(C)c2ccc(CN(C)S(C)(=O)=O)c(F)c2)CC1` (stereo not shown) [Example 63, 2-(3-fluoro-4-((N-methylmethylsulfonamido)methyl)phenyl)-N-((2-(4-methylpiperidin-1-yl)-6-(trifluoromethyl)pyridin-3-yl)methyl)propanamide], the Ki amounted to 55 nM.
